Assay [1] has as its system Cdc2 (Cdk1) tyrosine 15-phosphorylation in NCI-H1299 cells. As to the kind of experiment: Cdc2 (Cdk1) tyrosine 15-phosphorylation-inhibitory effect in camptothecin-treated NCI-H1299 cells (ELISA). In kind it is cell-based. Conditions: Homo sapiens; NCI-H1299, camptothecin 200 nM 16 hours, then test compound + nocodazole 8 hours; read-out: Cdc2-Y15 Phosphorylation-Inhibitory Effect (H1299, + camptothecin) (EC50). The text has this:
Pharmacological Test 2 (Method of Determining Drug Potency with Cells (Cdc2 (Cdk1) Tyrosine 15-Phosphorylation-Inhibitory Effect))
Fetal bovine serum (FBS) was obtained from Morgate; media RPMI1640 and DMEM were from Invitrogen; camptothecin was from Sigma; gemcitabine was from Nippon Eli Lilly; nocodazole and protease inhibitor cocktail were from Sigma; rabbit anti-Cdc2 antibody and mouse anti-Cdc2 antibody were from Santa Cruz Biotechnology; rabbit anti-tyrosine 15-phosphorylated Cdc2 antibody and horseradish peroxidase-labeled anti-mouse IgG antibody were from Cell Signaling Technology; sure blue reserve TMB peroxidase substrate was from Kirkegaard and Perry Laboratories.
Human non-small cell lung cancer cells (NCI-H1299) and human colon cancer cells (WiDr) were obtained from American Type Culture Collection (ATCC).
In the method of using NCI-H1299 cells, the cells were suspended in a medium of 10% FBS-added RPMI1640, and the cell suspension was applied to a 96-well Nunclondelta-processed plastic plate (bought from Nunc), in an amount of 2000 cells/100 μL/well, in which the cells were incubated overnight in 5% CO2-95% air at 37° C. Camptothecin was dissolved in dimethylsulfoxide (DMSO), and diluted with a medium of 10% FBS-added RPMI1640, and then this was applied to the plate on which the cells had been previously sowed, in an amount of 50 μL/well in such a manner that the final concentration of camptothecin could be 200 nM. Then, the cells were incubated for 16 hours at 37° C. in 5% CO2-95% air. The test compound was stepwise diluted with DMSO, then diluted with 4000 nM nocodazole-containing, 10% FBS-added RPMI1640, and applied to the plate on which the camptothecin-treated cells had been sowed, in an amount of 50 μL/well. The cells were incubated for 8 hours at 37° C. in 5% CO2-95% air, then the culture was removed, and a cytolytic buffer was added to the plate in an amount of 100 μL/well, shaken at 4° C. for 2 hours, then frozen at −80° C., and thawed to give a cell solution. Cdc2 and tyrosine 15-phosphorylated Cdc2 in the cell solution were determined through enzyme-linked immunosorbent assay (ELISA), and the ratio of tyrosine 15-phosphorylated Cdc2 to Cdc2 was calculated to obtain the 50% phosphorylation-inhibitory concentration of the test compound to the cells (EC50, nM). The cytolytic buffer used herein is an aqueous solution containing 20 mM Hepes (pH 7.5), 150 mM sodium chloride, 1 mM disodium ethylenediaminetetraacetate, 0.1% polyoxyethylene (10) octylphenyl ether, 1% protease inhibitor cocktail, 1 mM dithiothreitol, 2 mM sodium orthovanadate, 10 mM sodium fluoride and 10 mM glycerol diphosphate. Cdc2 was determined through ELISA as follows: A rabbit anti-Cdc2 antibody solution, which had been diluted 200-fold with 50 mM carbonate-bicarbonate buffer (pH 9.6), was applied to a 96-well maxisorpimmuno plate (bought from Nunc), in an amount of 50 μL/well, and statically kept overnight at 4° C. so as to fix the antibody on the plate. Next, this was washed three times with phosphate-buffered physiological saline (PBS), and 5% bovine serum albumin-containing PBS (5% BSA/PBS) was added thereto in an amount of 300 μL/well, and statically kept at room temperature for 2 hours, and then again washed three times with PBS. A mouse anti-Cdc2 antibody solution that had been diluted 100-fold with 0.05% polyoxyethylene sorbitan monolaurate and 1% BSA-containing Tris-HCl-buffered physiological saline (1% BSA/TBS-T) was added to it in an amount of 50 μL/well, and the cell solution was added thereto in an amount of 5 μL/well and statically kept overnight at 4° C. Next, this was washed three times with 0.05% polyoxyethylene sorbitan monolaurate and 0.1% BSA-containing Tris-HCl-buffered physiological saline (0.1% BSA/TBS-T), and then a horseradish peroxidase-labeled anti-mouse IgG antibody solution that had been diluted 2000-fold with 1% BSA/TBS-T was added thereto in an amount of 70 μL/well, and statically kept at room temperature for 3 hours. […]
(An ELISA detects its analyte on a solid surface through an enzyme-linked reagent.)

In assay [2] the target is T1, Wee1 kinase (Homo sapiens, UniProt P30291).
T1 construct: made in house; host or cells: Sf9 insect cells (recombinant baculovirus)
Briefly: Wee1 kinase-inhibitory effect (33P-ATP, Poly(Lys,Tyr) substrate, filter assay). In kind it is biochemical. The following applies: 10 μM ATP, 30° C., 30 minutes. The text has this: Pharmacological Test 1 (Wee1 Kinase-Inhibitory Effect)
(1) Purification of Wee1 Kinase:
A cDNA of Wee1 kinase with […] (GST) fused at the amino terminal thereof was inserted into a baculovirus expression vector to construct a recombinant baculovirus, with which cells of an insect cell line Sf9 were infected for high expression therein. The infected cells were recovered and solubilized, and then the GST-tagged Wee1 kinase protein was adsorbed by a glutathion column, and eluted from the column with glutathion, and the active fraction was desalted in a desalting column to give a purified enzyme.
(2) Determination of Wee1 Kinase Activity:
In determination of the Wee1 kinase activity, a synthetic peptide, Poly(Lys,Tyr) Hydrobromide (Lys:Tyr (4:1)) bought from Sigma was used as the substrate.
The amount of the reaction liquid was 21.1 μL; and the composition of the reaction buffer was 50 mM Tris-HCl buffer (pH 7.4)/10 mM magnesium chloride/1 mM dithiothreitol. The purified Wee1 kinase, 2.5 μg of the substrate peptide, 10 μM of non-labeled adenosine triphosphate (ATP) and 1 μCi of [γ-^33P]-labeled ATP (2500 Ci/mmol or more) were added to it, and reacted at 30° C. for 30 minutes. Next, 10 μL of 350 mM phosphate buffer was added to the reaction system to stop the reaction. The substrate peptide was adsorbed by a P81 paper filter 96-well plate, then washed a few times with 130 mM phosphate buffer, and its radioactivity was counted with a liquid scintillation counter. The [γ-^33P]-labeled ATP was bought from Amersham Bioscience.
To add the test compound to the reaction system, the compound was diluted with dimethylsulfoxide (DMSO) to prepare a series of dilutions. 1.1 μL of each dilution was added to the reaction system. As a control, 1.1 μL of DMSO was added to the reaction system.

Counter-ions that a name gives are not always drawn.

As usually defined, the EC50 is the concentration needed to bring the measured effect to its halfway point. By IC50 is commonly meant the concentration that inhibits the measured activity by half.

T1 sequence (P30291 whole entry): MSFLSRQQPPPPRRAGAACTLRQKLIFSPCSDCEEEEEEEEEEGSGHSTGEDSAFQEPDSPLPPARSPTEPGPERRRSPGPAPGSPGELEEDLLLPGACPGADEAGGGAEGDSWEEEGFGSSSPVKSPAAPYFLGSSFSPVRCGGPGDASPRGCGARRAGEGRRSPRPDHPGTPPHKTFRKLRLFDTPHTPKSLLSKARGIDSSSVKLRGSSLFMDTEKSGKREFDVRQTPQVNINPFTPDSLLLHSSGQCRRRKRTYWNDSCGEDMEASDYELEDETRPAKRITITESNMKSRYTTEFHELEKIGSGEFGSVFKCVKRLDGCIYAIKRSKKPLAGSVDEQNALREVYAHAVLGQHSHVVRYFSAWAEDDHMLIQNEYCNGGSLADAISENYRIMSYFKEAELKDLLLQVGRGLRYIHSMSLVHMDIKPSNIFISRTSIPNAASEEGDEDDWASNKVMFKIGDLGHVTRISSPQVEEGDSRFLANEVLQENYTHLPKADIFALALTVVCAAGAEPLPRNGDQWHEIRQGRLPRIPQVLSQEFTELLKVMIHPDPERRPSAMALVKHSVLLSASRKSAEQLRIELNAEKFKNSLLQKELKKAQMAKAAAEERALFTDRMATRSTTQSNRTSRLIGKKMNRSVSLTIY

In the case of `CN1Cc2cc(Nc3ncc4c(=N)n(-c5c(Cl)cccc5Cl)c(=O)[nH]c4n3)ccc2C2(CC2)C1` [Example 1, 3-(2,6-dichlorophenyl)-4-imino-7-[(2′-methyl-2′,3′-dihydro-1′H-spiro[cyclopropane-1,4′-isoquinolin]-7′-yl)amino]-3,4-dihydropyrimido[4,5-d]pyrimidin-2(1H)-one dihydrochloride], in assay [1], the EC50 is 19 nM. In assay [2], the IC50 was 5 nM.
The corresponding values for `CN1Cc2cc(Nc3ncc4c(=N)n(-c5c(Cl)cccc5Cl)c(=O)[nH]c4n3)ccc2C(C)(C)C1` [Example 2, 3-(2,6-dichlorophenyl)-4-imino-7-{[2,4,4-trimethyl-1,2,3,4-tetrahydroisoquinolin-7-yl]amino}-3,4-dihydropyrimido[4,5-d]pyrimidin-2(1H)-one] are 27 nM and 5.6 nM.
For `CN1Cc2cc(Nc3ncc4c(=N)n(-c5c(Cl)cccc5Cl)c(=O)[nH]c4n3)ccc2C1(C)C` [Example 7, 3-(2,6-dichlorophenyl)-4-imino-7-[(1,1,2-trimethyl-2,3-dihydro-1H-isoindol-5-yl)amino]-3,4-dihydropyrimido[4,5-d]pyrimidin-2(1H)-one] the same measures were 17 nM and 4.3 nM.

For the origin of these results see patent US8436004B2, “Bicycloaniline derivative” (MSD K.K., priority 2007, dated 2013).
